Values after ≈ are worked out from the molar mass of the structure shown. Read-outs that look alike come from different tables or passages of the source.
Assays:
[1] = tested on: C. tropicalis; assay: Broth dilution antifungal susceptibility testing of yeasts (CLSI M27-A), MIC; assay type: cell-based, Candida tropicalis
Experimental: (§1) Broth Dilution Antifungal Susceptibility Testing
(§2) The sensitivity of relevant fungal strains to the peptides was determined using Clinical Laboratory Standard Institute (CLSI; formerly NCCLS) Approved Standards. Fungal susceptibility was tested using “Reference Method for Broth Dilution Antifungal Susceptibility Testing of Filamentous Fungi; Approved Standard M38-P”, and yeast susceptibility was tested using “Reference Method for Broth Dilution Antifungal Susceptibility Testing of Yeasts; Approved Standard—Second Edition M27-A”.

[2] = tested on: Cryptococcus neoformans; assay: as above; assay type: cell-based; conditions: Cryptococcus neoformans strain DSM11959
Experimental: as §1, §2

[3] = tested on: Alternaria spp.; assay: Broth dilution antifungal susceptibility testing, MIC; assay type: cell-based; conditions: Alternaria spp. strain DM 2006 1218a
Experimental: as §1, §2

[4] = tested on: Fusarium solani; assay: as above; assay type: cell-based; conditions: Fusarium solani strain NCPF2877
Experimental: as §1, §2

[5] = tested on: Penicillium spp.; assay: as above; assay type: cell-based; conditions: Penicillium spp. strain DM 2006 1285b
Experimental: as §1, §2

[6] = tested on: Scopulariopsis brevicaulis; assay: as above; assay type: cell-based; conditions: Scopulariopsis brevicaulis strain DM 2006 1025
Experimental: as §1, §2

[7] = tested on: A. nidulans; assay: Broth dilution antifungal susceptibility testing of filamentous fungi (CLSI M38-P), MIC; assay type: cell-based, Aspergillus nidulans
Experimental: as §1, §2

[8] = tested on: A. niger; assay: as above; assay type: cell-based, Aspergillus niger
Experimental: as §1, §2

[9] = tested on: C. glabrata; assay: Broth dilution antifungal susceptibility testing of yeasts (CLSI M27-A), MIC; assay type: cell-based, Candida glabrata
Experimental: as §1, §2

[10] = tested on: C. parapsilosis; assay type: cell-based, Candida parapsilosis
Experimental: as §1
The sensitivity of relevant fungal strains to the peptides was determined using Clinical Laboratory Standard Institute (CLSI; formerly NCCLS) Approved Standards. Fungal susceptibility was tested using “Reference Method for Broth Dilution Antifungal Susceptibility Testing of Filamentous Fungi; […];

[11] = tested on: C. krusei; assay type: cell-based, Candida krusei
Experimental: as §1
(§3) The sensitivity of relevant fungal strains to the peptides was determined using Clinical Laboratory Standard Institute (CLSI; formerly NCCLS) Approved Standards.

[12] = tested on: C. albicans; assay type: cell-based, Candida albicans
Experimental: as §1, §3

N=C(N)NCCC[C@@H](N)C(=O)N[C@H](CCCNC(=N)N)C(=O)N[C@H](CCCNC(=N)N)C(=O)N[C@H](CCCNC(=N)N)C(=O)N[C@H](CCCNC(=N)N)C(=O)N[C@H](CCCNC(=N)N)C(=O)N[C@H](CCCNC(=N)N)C(=O)N[C@H](CCCNC(=N)N)C(=O)N[C@H](CCCNC(=N)N)C(=O)N[C@H](CCCNC(=N)N)C(=O)N[C@H](CCCNC(=N)N)C(=O)N[C@H](CCCNC(=N)N)C(=O)N[C@H](CCCNC(=N)N)C(=O)O [NP339, dRdRdRdRdRdRdRdRdRdRdRdRdR]
MIC ([1]; C. tropicalis strain AM2004/0087): 1 µM (≈ 2.05 µg/mL) | MIC ([1]; C. tropicalis strain AM2004/0088): 1 µM (≈ 2.05 µg/mL) | MIC ([1]; C. tropicalis strain AM2004/0089): 1 µM (≈ 2.05 µg/mL) | MIC ([1]; C. tropicalis strain AM2004/0090): 1 µM (≈ 2.05 µg/mL) | MIC ([1]; C. tropicalis strain AM2004/0091): 1 µM (≈ 2.05 µg/mL) | MIC ([1]; C. tropicalis strain ATCC750): 2 µM (≈ 4.1 µg/mL) | MIC [2]: 1 µM (≈ 2.05 µg/mL) | MIC [3]: 7.8 µM (≈ 16 µg/mL) | MIC [4]: 3.9 µM (≈ 7.99 µg/mL) | MIC [5]: 15.6 µM (≈ 32 µg/mL) | MIC [6]: 1 µM (≈ 2.05 µg/mL) | MIC ([7]; A nidulans strain AFG97-71): 4000 µM (≈ 8190 µg/mL) | MIC ([7]; A nidulans strain AFG99-247): 256 µM (≈ 524 µg/mL) | MIC ([7]; A nidulans strain AFG99-1373): 62.5 µM (≈ 128 µg/mL) | MIC ([7]; A nidulans strain NCPF2691): 3.9 µM (≈ 7.99 µg/mL) | MIC ([7]; A. nidulans strain AFG00-676): 1000 µM (≈ 2050 µg/mL) | MIC ([7]; A. nidulans strain AFG01-835): 1000 µM (≈ 2050 µg/mL) | MIC ([7]; A. nidulans strain AFG01-1716): 62.5 µM (≈ 128 µg/mL) | MIC ([7]; A. nidulans strain AFG97-453): 62.5 µM (≈ 128 µg/mL) | MIC ([7]; A. nidulans strain AFG 98-281): 62.5 µM (≈ 128 µg/mL) | MIC ([7]; A. nidulans strain AFG99-2387): 62.5 µM (≈ 128 µg/mL) | MIC ([7]; A. nidulans strain AFG9811-35): 125 µM (≈ 256 µg/mL) | MIC ([7]; A. nidulans strain AFGR2952): 62.5 µM (≈ 128 µg/mL) | MIC ([8]; A. niger strain AFG 01-60): 62.5 µM (≈ 128 µg/mL) | MIC ([8]; A. niger strain AFG 01-237): 1000 µM (≈ 2050 µg/mL) | MIC ([8]; A. niger strain AFG 01-381): 62.5 µM (≈ 128 µg/mL) | MIC ([8]; A. niger strain AFG 01-385): 1000 µM (≈ 2050 µg/mL) | MIC ([8]; A. niger strain AFG 01-423): 62.5 µM (≈ 128 µg/mL) | MIC ([8]; A. niger strain AFG 01-783): 62.5 µM (≈ 128 µg/mL) | MIC ([8]; A. niger strain AFG 01-809): 62.5 µM (≈ 128 µg/mL) | MIC ([8]; A. niger strain AFG 01-1237): 62.5 µM (≈ 128 µg/mL) | MIC ([8]; A. niger strain AFG 01-1286): 62.5 µM (≈ 128 µg/mL) | MIC ([8]; A. niger strain AFG 01-1424): 62.5 µM (≈ 128 µg/mL) | MIC ([8]; A. niger strain AFG 01-1494): 62.5 µM (≈ 128 µg/mL) | MIC ([8]; A. niger strain AFG 01-2103): 62.5 µM (≈ 128 µg/mL) | MIC ([8]; A. niger strain AFG 01-2112): 62.5 µM (≈ 128 µg/mL) | MIC ([8]; A. niger strain AFG 01-2267): 62.5 µM (≈ 128 µg/mL) | MIC ([8]; A. niger strain AFG 01-2620): >4000 µM | MIC ([8]; A. niger strain AFG 01-2840): 62.5 µM (≈ 128 µg/mL) | MIC ([8]; A. niger strain AFG J940179): 62.5 µM (≈ 128 µg/mL) | MIC ([8]; A. niger strain AFG J970467): 62.5 µM (≈ 128 µg/mL) | MIC ([8]; A. niger strain NCPF2022): 7.8 µM (≈ 16 µg/mL) | MIC ([9]; C. glabrata strain AM2002/0085): 2 µM (≈ 4.1 µg/mL) | MIC ([9]; C. glabrata strain AM2002/0088): 1 µM (≈ 2.05 µg/mL) | MIC ([9]; C. glabrata strain AM2007/0113): 2 µM (≈ 4.1 µg/mL) | MIC ([9]; C. glabrata strain AM2007/0114): 1 µM (≈ 2.05 µg/mL) | MIC ([9]; C. glabrata strain AM2007/0115): 2 µM (≈ 4.1 µg/mL) | MIC ([9]; C. glabrata strain AM2007/0116): 1 µM (≈ 2.05 µg/mL) | MIC ([9]; C. glabrata strain AM2007/0117): 1 µM (≈ 2.05 µg/mL) | MIC ([9]; C. glabrata strain AM2007/0118): 2 µM (≈ 4.1 µg/mL) | MIC ([9]; C. glabrata strain AM2007/0119): 1 µM (≈ 2.05 µg/mL) | MIC ([9]; C. glabrata strain AM2007/0120): 2 µM (≈ 4.1 µg/mL) | MIC ([9]; C. glabrata strain AM2007/0121): 1 µM (≈ 2.05 µg/mL) | MIC ([9]; C. glabrata strain AM2007/0122): 1 µM (≈ 2.05 µg/mL) | MIC ([9]; C. glabrata strain AM2007/0123): 1 µM (≈ 2.05 µg/mL) | MIC ([9]; C. glabrata strain AM2007/0124): 1 µM (≈ 2.05 µg/mL) | MIC ([9]; C. glabrata strain AM2007/0125): 2 µM (≈ 4.1 µg/mL) | MIC ([9]; C. glabrata strain AM2007/0126): 1 µM (≈ 2.05 µg/mL) | MIC ([9]; C. glabrata strain AM2007/0127): 1 µM (≈ 2.05 µg/mL) | MIC ([9]; C. glabrata strain AM2007/0128): 1 µM (≈ 2.05 µg/mL) | MIC ([9]; C. glabrata strain AM2007/0129): 1 µM (≈ 2.05 µg/mL) | MIC ([9]; C. glabrata strain AM2007/0130): 1 µM (≈ 2.05 µg/mL) | MIC ([10]; C. parapsilosis strain AM2004/0133): 1 to 2 µM | MIC ([10]; C. parapsilosis strain AM2005-0112): 2 µM (≈ 4.1 µg/mL) | MIC ([10]; C. parapsilosis strain AM2005/0233): 8 µM (≈ 16.4 µg/mL) | MIC ([10]; C. parapsilosis strain AM2005/0237): 1 µM (≈ 2.05 µg/mL) | MIC ([10]; C. parapsilosis strain AM2005/0238): 16 µM (≈ 32.8 µg/mL) | MIC ([10]; C. parapsilosis strain AM2005/0239): 1 µM (≈ 2.05 µg/mL) | MIC ([10]; C. parapsilosis strain AM2005/0242): 4 µM (≈ 8.19 µg/mL) | MIC ([10]; C. parapsilosis strain AM2005/0337): 2 to 16 µM | MIC ([10]; C. parapsilosis strain AM2007/0131): 4 to 32 µM | MIC ([10]; C. parapsilosis strain AM2007/0132): 16 to 32 µM | MIC ([10]; C. parapsilosis strain AM2007/0134): 4 to 32 µM | MIC ([10]; C. parapsilosis strain AM2007/0135): 1 to 2 µM | MIC ([10]; C. parapsilosis strain AM2007/0136): 2 µM (≈ 4.1 µg/mL) | MIC ([10]; C. parapsilosis strain AM2007/0137): 8 to 32 µM | MIC ([10]; C. parapsilosis strain AM2007/0138): 16 to 32 µM | MIC ([10]; C. parapsilosis strain AM2007/0139): 8 µM (≈ 16.4 µg/mL) | MIC ([10]; C. parapsilosis strain ATCC22019): 1 to 2 µM | MIC ([10]; C. parapsilosis strain ATCC90018): 2 µM (≈ 4.1 µg/mL) | MIC ([11]; C. krusei strain AM2005/0492): 1 µM (≈ 2.05 µg/mL) | MIC ([11]; C. krusei strain AM2005/0494): 1 µM (≈ 2.05 µg/mL) | MIC ([11]; C. krusei strain AM2005/0496): 2 µM (≈ 4.1 µg/mL) | MIC ([11]; C. krusei strain AM2005/0498): 1 µM (≈ 2.05 µg/mL) | MIC ([11]; C. krusei strain AM2005/0525): 2 µM (≈ 4.1 µg/mL) | MIC ([11]; C. krusei strain AM2005/0531): 2 µM (≈ 4.1 µg/mL) | MIC ([11]; C. krusei strain AM2006/0127): 1 µM (≈ 2.05 µg/mL) | MIC ([11]; C. krusei strain AM2007/0102): 2 µM (≈ 4.1 µg/mL) | MIC ([11]; C. krusei strain AM2007/0103): 2 µM (≈ 4.1 µg/mL) | MIC ([11]; C. krusei strain AM2007/0104): 1 µM (≈ 2.05 µg/mL) | MIC ([11]; C. krusei strain AM2007/0105): 1 µM (≈ 2.05 µg/mL) | MIC ([11]; C. krusei strain AM2007/0106): 1 µM (≈ 2.05 µg/mL) | MIC ([11]; C. krusei strain AM2007/0107): 1 µM (≈ 2.05 µg/mL) | MIC ([11]; C. krusei strain AM2007/0109): 1 µM (≈ 2.05 µg/mL) | MIC ([11]; C. krusei strain AM30274.04): 2 µM (≈ 4.1 µg/mL) | MIC ([11]; C. krusei strain AM30308.03.05): 1 µM (≈ 2.05 µg/mL) | MIC ([11]; C. krusei strain AM30332.04.05): 2 µM (≈ 4.1 µg/mL) | MIC ([11]; C. krusei strain AM30455.04.05): 1 µM (≈ 2.05 µg/mL) | MIC ([11]; C. krusei strain AM31194/04/05): 2 µM (≈ 4.1 µg/mL) | MIC ([11]; C. krusei strain AM31300/04/05): 2 µM (≈ 4.1 µg/mL) | MIC ([11]; C. krusei strain ATCC6258): 2 µM (≈ 4.1 µg/mL) | MIC, Candida albicans ATCC90028 [12]: 2 µM (≈ 4.1 µg/mL)
